According to paper PMC6530361, “Anti-tumor Efficacy Assessment of the Sigma Receptor Pan Modulator RC-106. A Promising Therapeutic Tool for Pancreatic Cancer” (Frontiers in Pharmacology, 2019):

What was measured:
Capan-2 = assay: Real-Time qRT-PCR of ER stress/UPR marker genes; format: cell-based; conditions: Capan-2, RC-106 50 μM, higher than untreated cells
Description: Total cellular RNA was extracted using TRIzol reagent (Life technologies) in accordance with manufacturer’s instruction and quantified using the Nanodrop MD-1000 spectrophotometer system. Reverse transcription reactions were performed in 20 μL of nuclease free water containing 400 ng of total RNA using iScript cDNA Synthesis kit (Bio-Rad Laboratories, Hercules, CA). Real-Time PCR was run using 7500 Fast Real-Time PCR system (Applied Biosystems) and TaqMan assays to detect the expression of SIGMAR1, TMEM97, GRP78/BiP, ATF4, and CHOP genes.
Reactions were carried out in triplicate at a final volume of 20 μL containing 40 ng of cDNA template, TaqMan universal PCR Master Mix (2X), and selected TaqMan assays (20X). Samples were maintained at 50°C for 2 min, then at 95°C for 10 min followed by 40 amplification cycles at 95°C for 15 s, and at 60°C for 30 s.
The amount of mRNA was normalized to the endogenous genes GAPDH and HPRT-1.

[1] = tested on: proteasome activity of PANC-1, Capan-1, and Capan-2; assay: Proteasome activity assay, all cell lines; format: cell-based; conditions: 20–100 μM, 24 h, all PC cell lines
Description: Cells were seeded in 6-well plates at density of 250 × 10^3 cells/well. Cells were treated with increasing concentration of RC-106 and after 24 h total protein extracts were obtained: cells were washed 2 times with PBS and lysed with 100 μL of lysis buffer (Hepes 5 mM pH 7.5, NaCl 150 mM, Glycerol 10%, Triton X100 1%, MgCl2 1.5 mM, EGTA 5 mM). Protein concentration of samples was quantified using Bradford method. Proteasome activity was quantified as described below. Proteasome solution was composed by 40 μg of proteins, 10 μL of 10X proteasome buffer (Hepes pH 7.5 250 mM, EDTA pH 8.0 5 mM, NP-40 0.5%, SDS 0.01%) and 10 μL of 10 mM proteasome substrate (N-Succinyl-Leu-Leu-Val-Tyr-7-Amido-4-Methylcoumarin, 7.6 mg/mL; Sigma-Aldrich, United States). 100 μL of proteasome solution was loaded in wells of a black 96-well plate. The plate was then incubated at 37°C for 2 h and the fluorescence was measured in a microplate reader (excitation 380 nm, emission 460 nm; BMG-Labtech, Germany).

C/C(=C\CN1CCC(Cc2ccccc2)CC1)c1ccc2ccccc2c1 [RC-106, (E)-4-benzyl-1-(3-(naphthalen-2-yl)but-2-en-1-yl)piperidine]
increase in expression of CHOP mRNA (Capan-2): 70 fold
proteasome activity [1]: reduce proteasome activity in a dose dependent manner
